Experiment: Inhibitory activity against Hog kidney Na+, K+ -Dependent ATPase
Parameters: species or system Sus scrofa
Settings: read-out: I50
Compound C[C@]12CC[C@H](O[C@H]3C[C@H](O)[C@H](O)[C@H](CO)O3)C[C@@H]1CC[C@@H]1[C@@H]2CC[C@]2(C)[C@@H](C3=CC(=O)OC3)CC[C@@]12O has an IC50 of 0.0107 µM. For C[C@]12CC[C@H](O[C@@H]3O[C@@H](CO)[C@@H](O)[C@H](O)[C@@H]3O)CC1CC[C@@H]1[C@@H]2CC[C@]2(C)[C@@H](C3=CC(=O)OC3)CC[C@@]12O (stereo partly drawn), the IC50 was 0.0117 µM. Compound C[C@]12CC[C@H](O[C@@H]3C[C@@H](O)[C@H](O)[C@H](CO)O3)C[C@@H]1CC[C@@H]1[C@@H]2CC[C@]2(C)[C@@H](C3=CC(=O)OC3)CC[C@@]12O has an IC50 of 0.0282 µM. C[C@]12CC[C@H](O)C[C@H]1CC[C@@H]1[C@@H]2CC[C@]2(C)[C@@H](C3=CC(=O)OC3)CC[C@]12O [DIGITOXIGENIN] showed an IC50 of 0.117 µM. With C[C@@H]1O[C@@H](O[C@H]2CC[C@@]3(C)[C@@H](CC[C@@H]4[C@@H]3CC[C@]3(C)[C@@H](C5=CC(=O)OC5)CC[C@@]43O)C2)C[C@@H]2OC(C)(C)O[C@H]12 the IC50 was 0.0418 µM. Compound C[C@@H]1O[C@@H](O[C@H]2CC[C@@]3(C)[C@@H](CC[C@@H]4[C@@H]3CC[C@]3(C)[C@@H](C5=CC(=O)OC5)CC[C@@]43O)C2)C[C@H](O)[C@@H]1O has an IC50 of 0.00704 µM. C[C@]12CC[C@H](O[C@@H]3O[C@@H](CO)[C@H](O)[C@H](O)[C@@H]3O)CC1CC[C@@H]1[C@@H]2CC[C@]2(C)[C@@H](C3=CC(=O)OC3)CC[C@@]12O (stereo partly drawn) showed an IC50 of 0.0645 µM. With C[C@]12CC[C@H](O[C@@H]3C[C@H](O)[C@H](O)[C@H](CO)O3)C[C@@H]1CC[C@@H]1[C@@H]2CC[C@]2(C)[C@@H](C3=CC(=O)OC3)CC[C@@]12O the IC50 was 0.0933 µM.

Source: ChEMBL document CHEMBL1122577, “Cardiac glycosides. 1. A systematic study of digitoxigenin D-glycosides” (J Med Chem, 1984)
